Source: ChEMBL document CHEMBL1201862, “PubChem BioAssay data set” (2004)
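Dose response: 5 concentrations. Exposure: 48 h. Format: 96-well plates. Endpoint: linear interpolation; highest concentration if not reached. The concentration for 50% growth inhibition is given as GI50.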 The source made the active and inactive calls. Cut-off read from the data, not from the text of the source: active = GI50 up to about 1.1 µM and inactive = higher.

Assays:
Assay in all cases: inhibition of tumour cell growth, NCI panel, 48 h
[1] = test system: U-251
[2] = test system: OVCAR-4
[3] = test system: NCI-H226
[4] = test system: HT-29
[5] = test system: MDA-MB-231
[6] = test system: SK-MEL-28
[7] = test system: MDA-MB-435
[8] = test system: CAKI-1
[9] = test system: SK-MEL-5
[10] = test system: OVCAR-8
[11] = test system: IGROV-1
[12] = test system: ACHN
[13] = test system: MCF7
[14] = test system: KM12
[15] = test system: SF-295
[16] = test system: OVCAR-3
[17] = test system: PC-3
[18] = test system: 786-0
[19] = test system: HCT-15
[20] = test system: T47D
[21] = test system: HOP-62
[22] = test system: K562
[23] = test system: RXF 393
[24] = test system: UACC-257
[25] = test system: RPMI-8226
[26] = test system: NCI-H522
[27] = test system: NCI-H460
[28] = test system: Hs-578T
[29] = test system: DU-145
[30] = test system: COLO 205
[31] = test system: HOP-92
[32] = test system: SF-539
[33] = test system: SNB-75
[34] = test system: A498
[35] = test system: MDA-N
[36] = test system: SK-OV-3
[37] = test system: UO-31
[38] = test system: EKVX
[39] = test system: SK-MEL-2
[40] = test system: SW-620
[41] = test system: OVCAR-5
[42] = test system: SN12C
[43] = test system: M14
[44] = test system: LOX IMVI
[45] = test system: SF-268
[46] = test system: A549
[47] = test system: MOLT-4
[48] = test system: TK-10
[49] = test system: NCI-H23
[50] = test system: SNB-19
[51] = test system: SR
[52] = test system: BT-549
[53] = test system: HL-60
[54] = test system: CCRF-CEM
[55] = test system: NCI/ADR-RES
[56] = test system: HCT-116
[57] = test system: UACC-62
[58] = test system: Malme-3M
[59] = test system: HCC 2998

Measured: GI50

COc1ccc(/C=C(/C#N)C(N)=O)c(OC)c1
inactive: [1] > 100 µM | [2] > 100 µM | [3] > 100 µM | [4] > 100 µM | [5] > 100 µM | [6] > 100 µM | [7] 23.5 µM | [8] > 100 µM | [9] 50.9 µM | [10] > 100 µM | [11] > 100 µM | [12] > 100 µM | [13] 44 µM | [14] > 100 µM | [15] 82.8 µM | [16] > 100 µM | [17] 97.3 µM | [18] > 100 µM | [20] > 100 µM | [21] > 100 µM | [22] 31.8 µM | [23] > 100 µM | [24] 89.5 µM | [25] > 100 µM | [26] > 100 µM | [27] > 100 µM | [28] > 100 µM | [29] > 100 µM | [30] > 100 µM | [31] 36.4 µM | [32] > 100 µM | [33] 72.1 µM | [34] 10.8 µM | [35] 19.3 µM | [36] > 100 µM | [37] 2.15 µM | [38] > 100 µM | [39] 50.4 µM | [40] 79.3 µM | [41] > 100 µM | [42] > 100 µM | [43] 41.3 µM | [44] > 100 µM | [45] > 100 µM | [46] > 100 µM | [47] > 100 µM | [48] > 100 µM | [49] > 100 µM | [50] > 100 µM | [51] 37.3 µM | [52] > 100 µM | [53] 34 µM | [54] 26.8 µM | [55] > 100 µM | [56] 64 µM | [57] 42.6 µM
60.8 µM: [19]

CN(C)c1ccc(-c2nc(-c3cc4c(ccc5ccccc54)oc3=O)cs2)cc1
> 100 µM: [19]
inactive: [1] > 100 µM | [2] > 100 µM | [3] > 100 µM | [4] > 100 µM | [58] > 100 µM | [5] > 100 µM | [6] > 100 µM | [7] > 100 µM | [8] > 100 µM | [9] > 100 µM | [10] > 100 µM | [11] > 100 µM | [12] > 100 µM | [13] > 100 µM | [14] > 100 µM | [15] > 100 µM | [17] > 100 µM | [18] > 100 µM | [20] > 100 µM | [21] > 100 µM | [22] > 100 µM | [23] > 100 µM | [24] > 100 µM | [25] > 100 µM | [26] > 100 µM | [27] > 100 µM | [28] > 100 µM | [29] > 100 µM | [30] > 100 µM | [31] > 100 µM | [32] > 100 µM | [33] > 100 µM | [35] > 100 µM | [36] > 100 µM | [37] > 100 µM | [38] > 100 µM | [39] > 100 µM | [40] > 100 µM | [41] > 100 µM | [42] > 100 µM | [43] > 100 µM | [44] > 100 µM | [45] > 100 µM | [46] > 100 µM | [47] > 100 µM | [48] > 100 µM | [50] > 100 µM | [51] > 100 µM | [52] > 100 µM | [53] > 100 µM | [54] > 100 µM | [55] > 100 µM | [56] > 100 µM | [57] > 100 µM | [59] > 100 µM

COc1cc(-c2ccccc2)cn2c1nc1ccccc12
15.3 µM: [19]
inactive: [1] 20 µM | [3] 17.5 µM | [4] 17.3 µM | [58] 20.2 µM | [5] 21.8 µM | [6] 17 µM | [7] 18.9 µM | [8] 19.6 µM | [9] 18.5 µM | [10] 24.8 µM | [11] 25.2 µM | [12] 20 µM | [13] 17.1 µM | [14] 17.9 µM | [16] 16.4 µM | [17] 18.8 µM | [18] 15.7 µM | [20] 20.7 µM | [21] 19.9 µM | [22] 25.2 µM | [23] 17.3 µM | [24] 22.7 µM | [25] 20.9 µM | [26] 16.5 µM | [27] 21.2 µM | [28] 27.6 µM | [29] 25.6 µM | [30] 19.2 µM | [31] 14.5 µM | [32] 26.6 µM | [33] 17.6 µM | [35] 17.7 µM | [36] 23.9 µM | [37] 14.8 µM | [39] 22.1 µM | [40] 35 µM | [41] 15 µM | [42] 19.8 µM | [43] 20.3 µM | [44] 22.3 µM | [45] 26.1 µM | [46] 20 µM | [47] 15.7 µM | [49] 35 µM | [50] 23.1 µM | [51] 29.2 µM | [52] 17.8 µM | [53] 15.6 µM | [54] 25.5 µM | [55] 22.8 µM | [56] 20.9 µM | [57] 18.7 µM | [59] 15.9 µM

Cn1c(N)cc(=O)nc1N
inactive: [1] > 100 µM | [2] > 100 µM | [3] > 100 µM | [4] > 100 µM | [58] > 100 µM | [5] > 100 µM | [6] > 100 µM | [7] > 100 µM | [8] > 100 µM | [9] > 100 µM | [10] > 100 µM | [11] > 100 µM | [12] > 100 µM | [13] > 100 µM | [14] > 100 µM | [15] > 100 µM | [16] > 100 µM | [17] > 100 µM | [18] > 100 µM | [20] > 100 µM | [21] > 100 µM | [22] > 100 µM | [25] > 100 µM | [26] > 100 µM | [27] > 100 µM | [28] > 100 µM | [29] > 100 µM | [30] > 100 µM | [32] > 100 µM | [33] > 100 µM | [34] > 100 µM | [35] > 100 µM | [36] > 100 µM | [37] > 100 µM | [38] > 100 µM | [39] > 100 µM | [40] > 100 µM | [41] > 100 µM | [42] > 100 µM | [43] > 100 µM | [44] > 100 µM | [45] > 100 µM | [46] > 100 µM | [47] > 100 µM | [48] > 100 µM | [49] > 100 µM | [50] > 100 µM | [51] > 100 µM | [52] > 100 µM | [53] > 100 µM | [54] > 100 µM | [55] > 100 µM | [56] > 100 µM | [57] > 100 µM | [59] > 100 µM
> 100 µM: [19]

CCOC(=O)N1CC2(C)C=CC1C(C(=O)OC)C2 (stereo not given)
> 100 µM: [19]
inactive: [1] > 100 µM | [2] > 100 µM | [3] 69.8 µM | [4] > 100 µM | [58] > 100 µM | [5] > 100 µM | [6] > 100 µM | [7] > 100 µM | [8] > 100 µM | [9] > 100 µM | [10] > 100 µM | [11] > 100 µM | [12] > 100 µM | [13] > 100 µM | [14] > 100 µM | [15] > 100 µM | [16] > 100 µM | [17] > 100 µM | [18] > 100 µM | [20] > 100 µM | [21] > 100 µM | [22] > 100 µM | [23] > 100 µM | [24] > 100 µM | [25] > 100 µM | [26] > 100 µM | [27] > 100 µM | [28] > 100 µM | [29] > 100 µM | [30] > 100 µM | [33] > 100 µM | [34] > 100 µM | [35] > 100 µM | [36] > 100 µM | [37] > 100 µM | [38] > 100 µM | [39] > 100 µM | [40] > 100 µM | [41] > 100 µM | [42] > 100 µM | [43] > 100 µM | [44] > 100 µM | [45] > 100 µM | [46] > 100 µM | [47] > 100 µM | [48] > 100 µM | [49] > 100 µM | [50] > 100 µM | [51] > 100 µM | [52] > 100 µM | [53] > 100 µM | [54] > 100 µM | [55] > 100 µM | [56] > 100 µM | [57] > 100 µM | [59] > 100 µM
